Patent publication US20040142379A1, “Affinity fishing for ligands and proteins receptors” (Carlsberg Research Laboratory, priority 2003, published 2004)
Entries after “also recorded” stand apart in the source; their conditions may differ.

Key:
[1] = system: isoleucine tRNA synthetase; conditions: approved antibiotic; Merck Manual; cited from earlier work
Myocytes = assay: Myocyte culture with phenylephrine (in vitro model of hypertrophy); format: cell-based, neonatal Wistar rats; conditions: 10 μM phenylephrine, grown two more days, serum free MEM
Procedure: (§1) Myocytes were prepared from 1 to 5 day old neonatal Wistar rats (University of Copenhagen) according to literature procedure described in Busk et al., 2002, Cardiovasc. Res., 56: 64-75 and plated into eight P10 culture plates at 6 million cells/plate. Cells were grown at 37° C. and 5% CO2 humidity in serum free Modified Eagle Media (MEM). After 2 days, the adherent cells were washed at room temperature with serum free MEM (2×) and fresh MEM was added. To four of the plates, 10 μM phenylephrine (PE) was also added. Cells were grown for two more days and then harvested as described below.
Using the procedures described above for Examples 1-5, the ligand Library 1 (containing unnatural amino acids) as described for Example 5, myocyte proteins prepared and labeled as described for Examples 9 and 11, screening as described for Example 15, sorting and identifying as described for Examples 18 to 21, digestion and protein identification as described for Examples 25-31, previously unknown, specific, differential ligand-protein binding pairs were identified for the normal (basal) myocyte protein mixtures and the phenylephrine (PE)-treated myocyte proteins screened against the ligands of Library 1. Phenylephrine was used to provide an in vitro model of hypertrophy, for example, cardiac hypertrophy (Arnott et al., 1998, Anal. Biochem., 1:1-18).

Phosphomannose isomerase = molecular target: T1, Phosphomannose isomerase (Candida albicans, UniProt P34948); conditions: in Candida; Wells et al, 1996; cited from earlier work
T1 sequence (P34948 1-441): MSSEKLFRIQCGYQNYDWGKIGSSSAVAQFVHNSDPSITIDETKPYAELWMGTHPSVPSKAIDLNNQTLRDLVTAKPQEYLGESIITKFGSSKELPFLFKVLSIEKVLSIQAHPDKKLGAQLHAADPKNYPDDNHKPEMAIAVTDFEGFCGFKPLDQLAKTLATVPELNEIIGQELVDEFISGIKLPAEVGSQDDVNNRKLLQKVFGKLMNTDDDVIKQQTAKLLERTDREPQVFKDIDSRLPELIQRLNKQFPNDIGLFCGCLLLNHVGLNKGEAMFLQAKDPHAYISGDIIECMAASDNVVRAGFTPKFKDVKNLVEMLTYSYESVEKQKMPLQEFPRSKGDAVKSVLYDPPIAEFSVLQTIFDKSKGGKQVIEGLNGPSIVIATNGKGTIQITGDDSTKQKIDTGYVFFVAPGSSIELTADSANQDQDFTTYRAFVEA

[2] = system: Phenylephrine Treated (Hyperthrophic) Myocytes protein mixture; assay: Solid phase screening of Library 1 with labeled myocyte proteins; on-bead affinity isolation and peptide mass fingerprinting of bound protein (PE-induced); format: binding, neonatal Wistar rats; conditions: proteins bound to resin-bound Library 1 ligand, primarily present in PE-treated hypertrophied cells; LA low abundance, M transmembrane or partially embedded, MA membrane associated
Procedure: as §1
(§2) Protein was extracted from myocytes prepared as described above for Example 9, using a new procedure modified from existing protocols, primarily: Arnott, et al., 1998, Anal. Biochem. 258: 1-18. The media was removed from plates and adhered cells were treated for 10 minutes with ice cold phosphate buffer (0.25 mL, 10 mM, pH 7.5, augmented with 0.15 M NaCl 60 mM Benzamidine HCl, 5 mM EDTA, 10 μg/mL E-64, 10 μg/mL Leupeptin, 10 μg/mL Pepstatin A, and 1 mM PMSF). The cells were scraped off the plates and then lysed (on ice) in a sonicator (2×) using 10 seconds off/10 seconds on cycles.
(§3) The resulting suspension was augmented with CHAPS, DTT, and urea to a final concentration of CHAPS (1% w/v), DTT (5 mM), and urea (8 M). After 10-15 minutes on ice, the solution was centrifuged for 10 minutes at 15,000 rpm at 4° C. The supernatant was removed and protein content quantified using the NanoOrange Protein test (Molecular Probes, Eugene, Oreg.): Total protein recovered: 70.5 μg for PE-treated cells and 60 μg for basal cells.
(§4) Fluorescent dye Oregon Green 514 (OR) (Molecular Probes) was used to label the healthy/basal cells while Rhodamine Red (RR) (Molecular Probes) was used to label the PE-treated cells. The labeling procedures were carried out according to the manufacturer's protocol. The protein solutions (0.25 mL, 50.4 μg for PE cells and 0.25 mL, 42.8 μg for basal cells) were dialyzed against a solution of 10 mM phosphate buffer, 0.15 M NaCl, pH 7.5 and then 1 M NaHCO3 (0.025 mL) added to a final pH of 8.5. 10 μL of dye in dry DMF (10 mg/mL) was added and the sample stirred at room temperature for 2 hours. The protein solution was dialyzed extensively against 10 mM phosphate buffer, 0.15 M NaCl, pH 7.5, to remove excess dye.
(§5) Ligand library 1 (200 mg), prepared as described for Example 5, was transferred to a syringe fitted with a stop-valve and the ligand-beads were washed for 10 minutes (3×) with 10 mM phosphate buffer, pH 6.8, supplemented with 0.15 M NaCl, 1 mM Ca^2+, 1 mM Zn^2+, 1 mM Mn^2+, 1 mM Cu^2+, and 1 mM Mg^2+ (3 mL). The ligand-beads were treated with a 1% BSA solution for 30 minutes, then washed with buffer (1×). A mixture of labeled myocyte proteins, including both PE-induced protein (138 μL, 40 μg) and basal protein (167 μL, 40 μg) obtained as described above for Example 11, was prepared in 1.2 mL buffer, and added to the ligand library in the syringe. The proteins and ligand library were incubated at room temperature for 16 hours. The library was then washed with buffer for 5 minutes then with water for 3×5 minutes. The library was examined under a fluorescence microscope and brightly fluorescent red, green, and yellow beads (yellow indicative of both dyes red and green binding; the majority of the beads) were present, as well as unlabelled beads. The fluorescent beads were parted and retained for analysis.
(§6) The fluorescent ligand library beads containing bound myocyte protein obtained as described in Example 15, were sorted using a COPAS (250) NF Bead Sorter (Union Biometrica, Somerville, Mass.). Beads emitting fluorescence of only one color contain proteins from one physical state, proteins expressed only in the PE-induced hypertrophic state (red) or proteins expressed only in the basal state (green).

[3] = system: Normal Myocytes (basal) protein mixture; assay: Solid phase screening of Library 1 with labeled myocyte proteins; on-bead affinity isolation and peptide mass fingerprinting of bound protein (basal); format: binding, neonatal Wistar rats; conditions: proteins bound to resin-bound Library 1 ligand, primarily present in basal cells; LA low abundance, M transmembrane or partially embedded, MA membrane associated; parentheses = possible complexes
Procedure: as §1, §2, §3, §4, §5, §6

| Compound | Identified Protein(s) [2] | Identified Protein(s) [3] | further results |
| --- | --- | --- | --- |
| C/C(=C\C(=O)OCCCCCCCCC(=O)O)C[C@@H]1OC[C@H](C[C@@H]2O[C@H]2[C@@H](C)[C@H](C)O)[C@@H](O)[C@H]1O [Mupirocin] |  |  | enzyme inhibition [1]: inhibits |
| CNC[C@H](O)c1cccc(O)c1 [PE, phenylephrine] |  |  | cell size at time of harvest (Myocytes): significantly enlarged |
| Nc1ccc(S(=O)(=O)Nc2ncccn2)cc1 [sulfadiazene] |  |  | enzyme inhibition (Phosphomannose isomerase): inhibited |
| Abi-Phe-Abi-Phe-Che-Tyr | Cathepsin E; Ribosomal proteins, Actin binding protein, Amino acid; also recorded: transferase |  |  |
| Abi-Thr-Hyp-Hyp-His-?- | Phosphofructokinase; Selenium binding protein; (Serine arginine rich; also recorded: protein kinase (LA); Guanylate kinase (LA), Protein tyrosine kinase; also recorded: (LA)); Alkaline phosphatase; Symporter (M); SPTR (M); WAP-protein;; also recorded: GTP Hydrolase, Actin filament |  |  |
| Pal-Abi-Gly-Gly-Abi-His | Ribosomal protein (60s + 40s); Low density lipoprotein receptor |  |  |
| Phe-Abi-Pal-Hyp-Thr-Hyp | Zinc finger associated protein; Ribosomal proteins; Protein phosphatase and (LA) |  |  |
| Phe-Gua-Pal-Tyr-Gua-Tyr | Glucose-6-Phosphatase; Succinate dehydrogenase; ARL-interacting; also recorded: protein (M); SPTR (M), Nucleic acid binding protein |  |  |
| Phe-Thr-Pya-Pip-Asp-His |  | (Sodium channel (M); Chloride channel (M)) Troponin; Ribosomal; also recorded: proteins L26; Serine hydroxy methyl transferase; Zn Finger protein (MA);; also recorded: Adherin aminotransferase (M); (Gluthathione transferase; Gluthathione; also recorded: peroxidase;) |  |
| Pip-Pal-Pal-Phe-Pya-Pip |  | Myosin light chain kinase (LA, MA); (Tyrosine phosphatase (LA, M);; also recorded: ATP Synthase component (M)) Gluthathione S-transferase; Cytochrome; also recorded: P450 (M); Ribosomal proteins (60s); SPTR (M)) |  |
| Pya-Gua-Abi-Asp-Abi-Tyr | SPTR (M); Ribosomal proteins (60s); (Calcium channel (M); Slo channel; also recorded: protein isoform (M); Potassium conductance calcium activated channel; also recorded: (M); Symporter (M;) NADH dehydrogenase; Malate dehydrogenase; N-; also recorded: Acetyl transferase; Mitochondrial associated protein; G-protein receptor; also recorded: used for signaling (LA, M) |  |  |
| Pya-Gua-Pip-Acc-Phe-Pip |  | NADH dehydrogenase; ATP binding component (M); Myosin; Histone; also recorded: associated proteins (M) |  |
| Pya-Hyp-Hyp-Phe-Acm-Tyr |  | Troponin T; Growth hormone receptor (M); Protein kinase (LA) |  |
